Results reported in ChEMBL document CHEMBL4706518, “Discovery of MGS0274, an ester prodrug of a metabotropic glutamate receptor 2/3 agonist with improved oral bioavailability” (Eur J Med Chem, 2020).
Blank lines part the entries; values can stand above or below the compound they belong to. Calls of active or inactive are those of the source. The rule behind the calls is not given here.

Experiments:
[1] = biological target: Vasopressin V2 receptor (Homo sapiens) (UniProt P30518); test: Binding affinity to Vasopressin V2 receptor (unknown origin) 10 umol/L by radioligand binding assay; conditions: dose 10.0 µmol/L
Homo sapiens [2] = species: Homo sapiens; test: Binding affinity to NMDA receptor glycine site (unknown origin) 10 umol/L by radioligand binding assay; conditions: dose 10.0 µmol/L
[3] = biological target: Nociceptin receptor (Homo sapiens) (UniProt P41146); test: Binding affinity to ORL1 receptor (unknown origin) 10 umol/L by radioligand binding assay; conditions: dose 10.0 µmol/L
Chain of Nociceptin receptor (Homo sapiens) (P41146 whole entry): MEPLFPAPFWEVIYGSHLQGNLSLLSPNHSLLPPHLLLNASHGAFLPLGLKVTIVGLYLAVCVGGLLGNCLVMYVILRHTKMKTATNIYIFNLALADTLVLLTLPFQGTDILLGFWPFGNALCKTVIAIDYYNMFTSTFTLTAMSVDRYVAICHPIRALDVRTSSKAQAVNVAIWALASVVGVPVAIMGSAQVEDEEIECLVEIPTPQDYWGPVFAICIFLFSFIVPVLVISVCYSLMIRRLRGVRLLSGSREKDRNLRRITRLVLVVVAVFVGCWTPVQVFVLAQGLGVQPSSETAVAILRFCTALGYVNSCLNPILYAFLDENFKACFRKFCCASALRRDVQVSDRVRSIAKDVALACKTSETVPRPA

Homo sapiens [4] = species: Homo sapiens; test: Binding affinity to Voltage-dependent N-type calcium channel (unknown origin) 10 umol/L by radioligand binding assay; conditions: dose 10.0 µmol/L
Homo sapiens [5] = species: Homo sapiens; test: Binding affinity to bombesin receptor (unknown origin) 10 umol/L by radioligand binding assay; conditions: dose 10.0 µmol/L
Homo sapiens [6] = species: Homo sapiens; test: Binding affinity to NMDA receptor agonist site (unknown origin) 10 umol/L by radioligand binding assay; conditions: dose 10.0 µmol/L
[7] = biological target: Kappa-type opioid receptor (Homo sapiens) (UniProt P41145); test: Binding affinity to kappa receptor (unknown origin) 10 umol/L by radioligand binding assay; conditions: dose 10.0 µmol/L
Homo sapiens [8] = species: Homo sapiens; test: Binding affinity to sodium channel site 2 (unknown origin) 10 umol/L by radioligand binding assay; conditions: dose 10.0 µmol/L
[9] = biological target: Prostaglandin E2 receptor EP2 subtype (Homo sapiens) (UniProt P43116); test: Binding affinity to Prostanoid EP2 receptor (unknown origin) 10 umol/L by radioligand binding assay; conditions: dose 10.0 µmol/L
Chain of Prostaglandin E2 receptor EP2 subtype (Homo sapiens) (P43116 whole entry): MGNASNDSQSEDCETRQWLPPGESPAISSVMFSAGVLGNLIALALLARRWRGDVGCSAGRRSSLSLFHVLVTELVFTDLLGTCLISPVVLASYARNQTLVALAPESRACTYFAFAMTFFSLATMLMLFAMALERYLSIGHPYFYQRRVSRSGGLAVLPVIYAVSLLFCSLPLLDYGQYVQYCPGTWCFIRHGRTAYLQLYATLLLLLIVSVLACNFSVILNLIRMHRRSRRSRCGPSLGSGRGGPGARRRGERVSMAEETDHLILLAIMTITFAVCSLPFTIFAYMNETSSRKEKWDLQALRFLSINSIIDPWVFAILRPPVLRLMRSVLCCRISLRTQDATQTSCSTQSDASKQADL

[10] = biological target: 5-hydroxytryptamine receptor 3A (Homo sapiens) (UniProt P46098); test: Binding affinity to 5-HT3 receptor (unknown origin) 10 umol/L by radioligand binding assay; conditions: dose 10.0 µmol/L
[11] = biological target: Endothelin-1 receptor (Homo sapiens) (UniProt P25101); test: Binding affinity to ETA receptor (unknown origin) 10 umol/L by radioligand binding assay; conditions: dose 10.0 µmol/L
[12] = biological target: Sodium-dependent serotonin transporter (Homo sapiens) (UniProt P31645); test: Inhibition of serotonin transporter (unknown origin) 10 umol/L by radioligand binding assay relative to control; conditions: dose 10.0 µmol/L
Chain of Sodium-dependent serotonin transporter (Homo sapiens) (P31645 whole entry, looked up): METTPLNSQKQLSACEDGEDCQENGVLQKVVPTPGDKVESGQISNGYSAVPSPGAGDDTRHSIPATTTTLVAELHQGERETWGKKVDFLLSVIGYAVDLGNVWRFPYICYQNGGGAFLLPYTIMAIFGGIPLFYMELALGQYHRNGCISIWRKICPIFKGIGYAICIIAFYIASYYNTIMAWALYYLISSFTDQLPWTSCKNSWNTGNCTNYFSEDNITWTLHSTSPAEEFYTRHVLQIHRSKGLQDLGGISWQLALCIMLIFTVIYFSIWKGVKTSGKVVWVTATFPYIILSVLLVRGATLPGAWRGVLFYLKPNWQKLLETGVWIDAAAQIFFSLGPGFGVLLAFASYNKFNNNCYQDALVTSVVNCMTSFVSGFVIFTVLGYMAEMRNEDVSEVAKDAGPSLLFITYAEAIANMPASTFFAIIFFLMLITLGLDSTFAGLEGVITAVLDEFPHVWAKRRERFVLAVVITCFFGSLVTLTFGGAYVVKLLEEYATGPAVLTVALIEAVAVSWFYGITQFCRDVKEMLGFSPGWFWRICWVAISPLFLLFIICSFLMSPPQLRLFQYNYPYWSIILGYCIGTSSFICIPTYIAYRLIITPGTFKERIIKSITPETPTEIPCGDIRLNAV

[13] = biological target: Alpha-2A adrenergic receptor (Homo sapiens) (UniProt P08913); test: Binding affinity to alpha2A adrenoreceptor (unknown origin) 10 umol/L by radioligand binding assay; conditions: dose 10.0 µmol/L
[14] = biological target: T1, Voltage-gated L-type calcium channel (Homo sapiens, UniProt Q13936+Q13698+Q01668+O60840); test: Binding affinity to Voltage-dependent L-type calcium channel benzothiazepine site (unknown origin) 10 umol/L by radioligand binding assay; assay type: protein assay; conditions: 10 µM, dose 10 µmol/L
[15] = biological target: Alpha-2C adrenergic receptor (Homo sapiens) (UniProt P18825); test: Binding affinity to alpha2C adrenoreceptor (unknown origin) 10 umol/L by radioligand binding assay; conditions: dose 10.0 µmol/L
Chain of Alpha-2C adrenergic receptor (Homo sapiens) (P18825 whole entry): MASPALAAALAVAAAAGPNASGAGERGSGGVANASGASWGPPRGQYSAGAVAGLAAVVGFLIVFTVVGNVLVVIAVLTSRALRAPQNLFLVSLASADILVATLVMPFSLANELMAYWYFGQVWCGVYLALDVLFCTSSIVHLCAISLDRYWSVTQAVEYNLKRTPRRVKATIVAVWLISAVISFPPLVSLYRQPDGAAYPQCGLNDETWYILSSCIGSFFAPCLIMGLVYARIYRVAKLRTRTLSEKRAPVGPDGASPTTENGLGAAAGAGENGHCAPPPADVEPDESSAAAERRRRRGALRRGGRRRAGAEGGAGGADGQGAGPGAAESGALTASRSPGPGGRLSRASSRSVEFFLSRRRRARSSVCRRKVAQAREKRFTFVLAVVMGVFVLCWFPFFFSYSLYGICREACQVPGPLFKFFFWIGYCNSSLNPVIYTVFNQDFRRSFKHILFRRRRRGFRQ

Homo sapiens [16] = species: Homo sapiens; test: Binding affinity to GABAA receptor agonist site (unknown origin) 10 umol/L by radioligand binding assay; conditions: dose 10.0 µmol/L
[17] = biological target: Muscarinic acetylcholine receptor M1 (Homo sapiens) (UniProt P11229); test: Binding affinity to muscarinic M1 (unknown origin) 10 umol/L by radioligand binding assay; conditions: dose 10.0 µmol/L
Homo sapiens [18] = species: Homo sapiens; test: Binding affinity to GABA transporter (unknown origin) 10 umol/L by radioligand binding assay; conditions: dose 10.0 µmol/L
[19] = biological target: Delta-type opioid receptor (Homo sapiens) (UniProt P41143); test: Binding affinity to delta opioid receptor (unknown origin) 10 umol/L by radioligand binding assay; conditions: dose 10.0 µmol/L
Homo sapiens [20] = species: Homo sapiens; test: Binding affinity to Small conductance calcium-activated potassium channel (unknown origin) 10 umol/L by radioligand binding assay; conditions: dose 10.0 µmol/L
[21] = biological target: Sigma intracellular receptor 2 (Homo sapiens) (UniProt Q5BJF2); test: Binding affinity to sigma2 receptor (unknown origin) 10 umol/L by radioligand binding assay; conditions: dose 10.0 µmol/L
Chain of Sigma intracellular receptor 2 (Homo sapiens) (Q5BJF2 whole entry): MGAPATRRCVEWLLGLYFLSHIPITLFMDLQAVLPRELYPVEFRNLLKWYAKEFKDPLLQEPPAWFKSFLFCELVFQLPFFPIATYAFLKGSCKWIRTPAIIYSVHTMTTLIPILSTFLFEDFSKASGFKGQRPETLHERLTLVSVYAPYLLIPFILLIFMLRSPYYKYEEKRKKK

[22] = biological target: T1, Voltage-gated L-type calcium channel; test: Binding affinity to Voltage-dependent L-type calcium channel dihydropyridine site (unknown origin) 10 umol/L by radioligand binding assay; assay type: protein assay; conditions: 10 µM, dose 10 µmol/L
[23] = biological target: Alpha-1A adrenergic receptor (Homo sapiens) (UniProt P35348); test: Binding affinity to alpha1A adrenoreceptor (unknown origin) 10 umol/L by radioligand binding assay; conditions: dose 10.0 µmol/L
Chain of Alpha-1A adrenergic receptor (Homo sapiens) (P35348 whole entry): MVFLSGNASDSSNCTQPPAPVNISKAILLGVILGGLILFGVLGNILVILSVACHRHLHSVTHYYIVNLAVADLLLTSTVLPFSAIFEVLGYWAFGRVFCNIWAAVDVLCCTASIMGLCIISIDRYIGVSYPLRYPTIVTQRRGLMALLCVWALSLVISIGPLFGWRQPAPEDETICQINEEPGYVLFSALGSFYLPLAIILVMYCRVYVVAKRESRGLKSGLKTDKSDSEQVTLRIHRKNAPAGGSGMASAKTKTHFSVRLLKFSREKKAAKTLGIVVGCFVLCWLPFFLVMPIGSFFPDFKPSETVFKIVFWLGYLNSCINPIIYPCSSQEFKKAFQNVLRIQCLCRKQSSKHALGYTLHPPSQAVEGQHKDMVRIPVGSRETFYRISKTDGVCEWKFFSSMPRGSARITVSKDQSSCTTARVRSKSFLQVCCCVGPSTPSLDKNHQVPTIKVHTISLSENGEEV

[24] = biological target: Cannabinoid receptor 1 (Homo sapiens) (UniProt P21554); test: Binding affinity to CB1 (unknown origin) 10 umol/L by radioligand binding assay; conditions: dose 10.0 µmol/L
[25] = biological target: D(1B) dopamine receptor (Homo sapiens) (UniProt P21918); test: Binding affinity to D5 receptor (unknown origin) 10 umol/L by radioligand binding assay; conditions: dose 10.0 µmol/L
[26] = biological target: Vasoactive intestinal polypeptide receptor 1 (Homo sapiens) (UniProt P32241); test: Binding affinity to VIP1 receptor (unknown origin) 10 umol/L by radioligand binding assay; conditions: dose 10.0 µmol/L
Chain of Vasoactive intestinal polypeptide receptor 1 (Homo sapiens) (P32241 whole entry): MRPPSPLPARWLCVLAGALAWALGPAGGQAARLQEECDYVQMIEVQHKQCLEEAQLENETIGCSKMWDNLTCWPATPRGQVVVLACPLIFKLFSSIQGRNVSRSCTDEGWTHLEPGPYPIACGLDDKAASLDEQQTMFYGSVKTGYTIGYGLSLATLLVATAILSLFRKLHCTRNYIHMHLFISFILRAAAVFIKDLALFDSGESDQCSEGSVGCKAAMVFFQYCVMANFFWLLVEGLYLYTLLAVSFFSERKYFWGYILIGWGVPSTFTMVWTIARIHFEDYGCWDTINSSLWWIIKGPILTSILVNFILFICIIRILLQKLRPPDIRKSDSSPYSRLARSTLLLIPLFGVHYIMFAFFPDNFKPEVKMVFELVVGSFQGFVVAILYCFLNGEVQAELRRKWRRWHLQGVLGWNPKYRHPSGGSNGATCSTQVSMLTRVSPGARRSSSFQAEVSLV

[27] = biological target: Type-2 angiotensin II receptor (Homo sapiens) (UniProt P50052); test: Binding affinity to AT2 receptor (unknown origin) 10 umol/L by radioligand binding assay; conditions: dose 10.0 µmol/L
Chain of Type-2 angiotensin II receptor (Homo sapiens) (P50052 whole entry): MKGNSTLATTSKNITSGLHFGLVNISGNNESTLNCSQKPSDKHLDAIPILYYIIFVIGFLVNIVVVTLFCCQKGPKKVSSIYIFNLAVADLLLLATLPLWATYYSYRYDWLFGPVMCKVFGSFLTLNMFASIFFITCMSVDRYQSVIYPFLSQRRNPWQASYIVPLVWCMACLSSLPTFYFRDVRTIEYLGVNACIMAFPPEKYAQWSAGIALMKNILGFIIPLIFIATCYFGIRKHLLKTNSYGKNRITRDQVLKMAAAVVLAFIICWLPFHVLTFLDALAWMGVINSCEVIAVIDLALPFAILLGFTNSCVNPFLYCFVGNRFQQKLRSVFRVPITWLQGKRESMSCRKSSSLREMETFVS

[28] = biological target: Histamine H1 receptor (Homo sapiens) (UniProt P35367); test: Binding affinity to H1 receptor (unknown origin) 10 umol/L by radioligand binding assay; conditions: dose 10.0 µmol/L
Homo sapiens [29] = species: Homo sapiens; test: Binding affinity to Potassium voltage-gated channel (unknown origin) 10 umol/L by radioligand binding assay; conditions: dose 10.0 µmol/L
Homo sapiens [30] = species: Homo sapiens; test: Binding affinity to Imidazole receptor (unknown origin) 10 umol/L by radioligand binding assay; conditions: dose 10.0 µmol/L
[31] = biological target: D(2) dopamine receptor (Homo sapiens) (UniProt P14416); test: Binding affinity to D2S receptor (unknown origin) 10 umol/L by radioligand binding assay; conditions: dose 10.0 µmol/L
Homo sapiens [32] = species: Homo sapiens; test: Binding affinity to AMPA receptor (unknown origin) 10 umol/L by radioligand binding assay; conditions: dose 10.0 µmol/L
[33] = biological target: Histamine H3 receptor (Homo sapiens) (UniProt Q9Y5N1); test: Binding affinity to H3 receptor (unknown origin) 10 umol/L by radioligand binding assay; conditions: dose 10.0 µmol/L
Homo sapiens [34] = species: Homo sapiens; test: Binding affinity to GABAA chloride channel central (unknown origin) 10 umol/L by radioligand binding assay; conditions: dose 10.0 µmol/L
Homo sapiens [35] = species: Homo sapiens; test: Binding affinity to Monoamine transporter (unknown origin) 10 umol/L by radioligand binding assay; conditions: dose 10.0 µmol/L
Homo sapiens [36] = species: Homo sapiens; test: Binding affinity to ATP-sensitive inward rectifier potassium channel (unknown origin) 10 umol/L by radioligand binding assay; conditions: dose 10.0 µmol/L
[37] = biological target: Corticotropin-releasing factor receptor 1 (Homo sapiens) (UniProt P34998); test: Binding affinity to CRF1(unknown origin) 10 umol/L by radioligand binding assay; conditions: dose 10.0 µmol/L
Chain of Corticotropin-releasing factor receptor 1 (Homo sapiens) (P34998 whole entry): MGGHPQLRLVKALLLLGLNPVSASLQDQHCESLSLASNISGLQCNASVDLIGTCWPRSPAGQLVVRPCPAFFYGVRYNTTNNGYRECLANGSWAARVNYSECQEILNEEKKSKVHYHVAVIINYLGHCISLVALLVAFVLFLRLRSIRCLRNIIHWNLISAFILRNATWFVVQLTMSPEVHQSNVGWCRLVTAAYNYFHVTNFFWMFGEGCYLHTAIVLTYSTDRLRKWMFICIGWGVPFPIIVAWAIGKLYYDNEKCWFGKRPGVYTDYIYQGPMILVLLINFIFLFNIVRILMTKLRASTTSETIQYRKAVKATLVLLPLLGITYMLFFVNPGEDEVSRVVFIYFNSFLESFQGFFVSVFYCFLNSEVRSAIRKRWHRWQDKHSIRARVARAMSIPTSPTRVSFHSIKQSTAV

[38] = biological target: Substance-P receptor (Homo sapiens) (UniProt P25103); test: Binding affinity to NK1 receptor (unknown origin) 10 umol/L by radioligand binding assay; conditions: dose 10.0 µmol/L
Homo sapiens [39] = species: Homo sapiens; test: Binding affinity to adenosine transporter (unknown origin) at 10 umol/L by radioligand binding assay; conditions: dose 10.0 µmol/L
[40] = biological target: Glucocorticoid receptor (Homo sapiens) (UniProt P04150); test: Binding affinity to glucocorticoid receptor (unknown origin) 10 umol/L by radioligand binding assay; conditions: dose 10.0 µmol/L
[41] = biological target: Type-1 angiotensin II receptor (Homo sapiens) (UniProt P30556); test: Binding affinity to AT1 receptor (unknown origin) 10 umol/L by radioligand binding assay; conditions: dose 10.0 µmol/L
Chain of Type-1 angiotensin II receptor (Homo sapiens) (P30556 whole entry): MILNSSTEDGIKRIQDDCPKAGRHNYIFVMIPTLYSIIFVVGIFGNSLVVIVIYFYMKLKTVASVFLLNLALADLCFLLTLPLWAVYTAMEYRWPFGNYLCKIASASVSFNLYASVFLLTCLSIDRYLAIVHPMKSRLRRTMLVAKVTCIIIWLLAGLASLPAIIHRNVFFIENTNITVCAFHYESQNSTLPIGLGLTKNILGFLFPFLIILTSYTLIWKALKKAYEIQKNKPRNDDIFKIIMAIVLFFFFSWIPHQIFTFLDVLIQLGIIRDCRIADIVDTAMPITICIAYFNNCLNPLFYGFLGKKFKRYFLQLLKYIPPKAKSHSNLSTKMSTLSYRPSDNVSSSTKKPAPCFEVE

[42] = biological target: Beta-1 adrenergic receptor (Homo sapiens) (UniProt P08588); test: Binding affinity to beta1 adrenoreceptor (unknown origin) 10 umol/L by radioligand binding assay; conditions: dose 10.0 µmol/L
Chain of Beta-1 adrenergic receptor (Homo sapiens) (P08588 whole entry, looked up): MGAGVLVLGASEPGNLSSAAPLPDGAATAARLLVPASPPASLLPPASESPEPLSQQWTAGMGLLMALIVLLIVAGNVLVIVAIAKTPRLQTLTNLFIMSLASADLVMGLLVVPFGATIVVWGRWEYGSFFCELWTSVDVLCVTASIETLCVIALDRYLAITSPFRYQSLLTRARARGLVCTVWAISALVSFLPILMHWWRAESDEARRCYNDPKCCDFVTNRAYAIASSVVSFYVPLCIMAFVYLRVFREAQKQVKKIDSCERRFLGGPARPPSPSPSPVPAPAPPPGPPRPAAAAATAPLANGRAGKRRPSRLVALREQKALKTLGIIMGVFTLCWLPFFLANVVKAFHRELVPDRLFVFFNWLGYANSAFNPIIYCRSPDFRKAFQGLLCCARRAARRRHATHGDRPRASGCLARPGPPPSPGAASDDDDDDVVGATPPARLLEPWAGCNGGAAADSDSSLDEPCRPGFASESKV

Homo sapiens [43] = species: Homo sapiens; test: Binding affinity to GABAB (unknown origin) 10 umol/L by radioligand binding assay; conditions: dose 10.0 µmol/L
Homo sapiens [44] = species: Homo sapiens; test: Binding affinity to GABAA receptor BZ central (unknown origin) 10 umol/L by radioligand binding assay; conditions: dose 10.0 µmol/L
[45] = biological target: Mu-type opioid receptor (Homo sapiens) (UniProt P35372); test: Binding affinity to mu receptor (unknown origin) 10 umol/L by radioligand binding assay; conditions: dose 10.0 µmol/L
Chain of Mu-type opioid receptor (Homo sapiens) (P35372 whole entry): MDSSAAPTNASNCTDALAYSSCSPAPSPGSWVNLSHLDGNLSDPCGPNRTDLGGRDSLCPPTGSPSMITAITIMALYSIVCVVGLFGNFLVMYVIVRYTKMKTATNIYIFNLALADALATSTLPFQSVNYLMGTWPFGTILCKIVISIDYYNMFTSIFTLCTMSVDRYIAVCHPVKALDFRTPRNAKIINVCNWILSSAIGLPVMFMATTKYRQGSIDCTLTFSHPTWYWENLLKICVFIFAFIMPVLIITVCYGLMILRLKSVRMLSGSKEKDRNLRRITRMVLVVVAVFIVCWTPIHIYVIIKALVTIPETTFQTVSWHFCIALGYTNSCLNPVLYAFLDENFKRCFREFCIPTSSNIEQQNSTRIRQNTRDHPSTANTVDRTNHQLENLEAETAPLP

Activity [1]: inactive
Activity (Homo sapiens [2]): inactive
Activity [3]: inactive
Activity (Homo sapiens [4]): inactive
Activity (Homo sapiens [5]): inactive
Activity (Homo sapiens [6]): inactive
Activity [7]: inactive
Activity (Homo sapiens [8]): inactive
Activity [9]: inactive
Activity [10]: inactive
Activity [11]: inactive
inhibition [12]: inactive
Activity [13]: inactive
Activity [14]: Not Active
Activity [15]: inactive
Activity (Homo sapiens [16]): inactive
Activity [17]: inactive
Activity (Homo sapiens [18]): inactive
Activity [19]: inactive
Activity (Homo sapiens [20]): inactive
Activity [21]: inactive
Activity [22]: Not Active
Activity [23]: inactive
Activity [24]: inactive
Activity [25]: inactive
Activity [26]: inactive
Activity [27]: inactive
Activity [28]: inactive
Activity (Homo sapiens [29]): inactive
Activity (Homo sapiens [30]): inactive
Activity [31]: inactive
Activity (Homo sapiens [32]): inactive
Activity [33]: inactive
Activity (Homo sapiens [34]): inactive
Activity (Homo sapiens [35]): inactive
Activity (Homo sapiens [36]): inactive
Activity [37]: inactive
Activity [38]: inactive
Activity (Homo sapiens [39]): inactive
Activity [40]: inactive
Activity [41]: inactive
Activity [42]: inactive
Activity (Homo sapiens [43]): inactive
Activity (Homo sapiens [44]): inactive
Activity [45]: inactive
SMILES: N[C@]1(C(=O)O)[C@H]2[C@@H](C[C@@H]1F)[C@@H]2C(=O)O

Activity [1]: inactive
Activity (Homo sapiens [2]): inactive
Activity [3]: inactive
Activity (Homo sapiens [4]): inactive
Activity (Homo sapiens [5]): inactive
Activity (Homo sapiens [6]): inactive
Activity [7]: inactive
Activity (Homo sapiens [8]): inactive
Activity [9]: inactive
Activity [10]: inactive
Activity [11]: inactive
inhibition [12]: 76%
Activity [13]: inactive
Activity [14]: Not Active
Activity [15]: inactive
Activity (Homo sapiens [16]): inactive
Activity [17]: inactive
Activity (Homo sapiens [18]): inactive
Activity [19]: inactive
Activity (Homo sapiens [20]): inactive
Activity [21]: inactive
Activity [22]: Not Active
Activity [23]: inactive
Activity [24]: inactive
Activity [25]: inactive
Activity [26]: inactive
Activity [27]: inactive
Activity [28]: inactive
Activity (Homo sapiens [29]): inactive
Activity (Homo sapiens [30]): inactive
Activity [31]: inactive
Activity (Homo sapiens [32]): inactive
Activity [33]: inactive
Activity (Homo sapiens [34]): inactive
Activity (Homo sapiens [35]): inactive
Activity (Homo sapiens [36]): inactive
Activity [37]: inactive
Activity [38]: inactive
Activity (Homo sapiens [39]): inactive
Activity [40]: inactive
Activity [41]: inactive
Activity [42]: inactive
Activity (Homo sapiens [43]): inactive
Activity (Homo sapiens [44]): inactive
Activity [45]: inactive
SMILES: CC(C)[C@@H]1CC[C@@H](C)C[C@H]1OC(=O)O[C@@H](C)OC(=O)[C@H]1[C@@H]2C[C@H](F)[C@@](N)(C(=O)O)[C@@H]21
